# Measured values taken from US20220323406A1, “METHODS AND COMPOSITIONS FOR DIFFERENTIATING STEM CELLS” (Massachusetts Institute of Technology, priority 2019, published 2022).
# Experiments:
# [1] = tested on: ENR+CD organoids (ISC to Paneth cell differentiation); test: Primary screen: CCh-stimulated lysozyme secretion LYZ.S, 2.5-D 384-well ENR+CD organoid differentiation; assay type: cell-based, mouse; conditions: primary screen
# Excerpt: High-throughput screening.
# [2] = tested on: ENR+CD organoids (ISC to Paneth cell differentiation); test: Secondary (validation) screen: LYZ.NS basal lysozyme secretion, 2.5-D 384-well ENR+CD organoids; assay type: cell-based, mouse; conditions: for Dose.FC.LYZ.NS: 6-day ENR+CD, vs ENR+CD+DMSO
# [3] = tested on: ENR+CD organoids; test: Secondary (validation) screen: ATP (CTG) assay, 2.5-D 384-well ENR+CD organoids; assay type: cell-based, mouse; conditions: 6-day ENR+CD, vs ENR+CD+DMSO
# [4] = tested on: intestinal organoids; test: Population RNA-sequencing of treated organoids; assay type: cell-based, mouse
# Description: Population RNA-sequencing. Population RNA-seq was performed using a derivative of the Smart-Seq2 protocol for single cells. In brief, organoid media was aspirated and RLT+BME (Qiagen) was added to each well, and plate shaken for 30 minutes to fully lyse. Lysate was aliquoted into 4 identical fractions and stored at −80° C. until reverse transcription. RNA lysate was thawed and cleaned with a 2.2×SPRI ratio using Agencourt RNAClean XP beads (Beckman Coulter, A63987). RNA-seq was performed on a bulk population of sorted basal cells using Smart-Seq2 chemistry, starting with a 2.2×SPRI ratio cleanup. After oligo-dT priming, Maxima H Minus Reverse Transcriptase (ThermoFisher EP0753) was used to synthesize cDNA with an elongation step at 52° C. before PCR amplification (15 cycles for tissue, 18 cycles for sorted basal cells) using KAPA HiFi PCR Mastermix (Kapa Biosystems KK2602). Sequencing libraries were prepared using the Nextera XT DNA tagmentation kit (Illumina FC-131-1096) with 250 pg input for each sample. Libraries were pooled post-Nextera and cleaned using Agencourt AMPure SPRI beads with successive 0.7× and 0.8× ratio SPRIs and sequenced with an Illumina 75 Cycle NextSeq500/550v2 kit (Illumina FC-404-2005) with loading density at […], with paired end 35 cycle read structure. Samples were sequenced at an average read depth of 8.44 million reads per sample and a total of 96 samples.
# Organoid samples were aligned to the Mm10 genome and transcriptome using STAR and RSEM. […] For module scoring with the in vivo Paneth and enteroendocrine cell-defining genes, Applicants used previously published gene sets and computed per sample module scores through the Seurat package.
# [5] = Animal study: oral gavage every other day for two weeks, body weight; assay type: in vivo, mouse
# Description: Following a similar protocol as previously reported for SINE treatment in the context of cancer (Arango et al., 2017; Azmi et al., 2013; Hing et al., 2016; Zheng et al., 2014), KPT-330 was administered at a dose 10 mg/kg via oral gavage every other day over a two-week span in C57BL/6 wild-type mice, and body weight was monitored for any clear toxicity. […] Given animal weight loss on the standard chemotherapeutic dosage regimen, and additional evidence that sustained dosage of SINEs adversely impacts T cell populations (Tyler et al., 2017), Applicants sought to explore dosing regimens well below 10 mg/kg, to see if a pro-Paneth phenotype may exist below potential toxicities. […] Applicants tracked animal weight every other day, and at day 14 collected the proximal and distal thirds of the small intestine for histological quantification of Paneth, stem, and goblet populations (FIG. 26A). […] Paneth cells were counted within well preserved crypts, with at minimum 30 crypts quantified per animal (representative images FIG. 30C) and then averaged to get mean Paneth cells per crypt in distal and proximal thirds of the small intestine. […] Applicants additionally quantified the abundance of Olfm4+ stem cells as well as PAS+ goblet cells within the same animals to ascertain whether the effect of SINE treatment was restricted to the Paneth cell compartment (representative images FIG. 30D,E). […]
# [6] = mouse, in vivo, po
# [7] = tested on: ENR+CD organoids; test: Primary screen: ATP (CellTiter-Glo 3D, CTG) cell number/viability, 2.5-D 384-well ENR+CD organoids; conditions: for Dose.FC.CTG (log2 fold change): primary screen;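 as to all read-outs here: compounds given at plating and again on day 3 over a 6-day differentiation from ENR+CV stem-cell-enriched precursors, ATP measured on day 6, plate median as control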
compound,measurement,setting,value
O=C(/C=C\n1cnc(-c2cc(C(F)(F)F)cc(C(F)(F)F)c2)n1)NNc1cnccn1 [KPT-330],Dose.FC.LYZ.S (log2 fold change),[1]; dose 0.08 uM,0.259
same,Dose.FC.LYZ.S (log2 fold change),[1]; dose 0.40 uM,−0.282
same,Dose.FC.LYZ.S (log2 fold change),[1]; dose 2.00 uM,−0.390
same,Dose.FC.LYZ.S (log2 fold change),[1]; dose 10.00 uM,−0.423
same,Dose.FC.LYZ.NS,[2]; 0.02 uM,−0.005 log2 fold change
same,Dose.FC.LYZ.NS,[2]; 0.04 uM,−0.040 log2 fold change
same,Dose.FC.LYZ.NS,[2]; 0.08 uM,0.142 log2 fold change
same,validated doses in secondary screen (SSMD above cutoff in both LYZ assays),[2]; LYZ.NS and LYZ.S,multiple validated doses
same,Dose.FC.LYZ.NS,[2]; […],0.244 log2 fold change
same,increase in basal LYZ secretion (LYZ.NS) relative to ENR+CD control,"[2]; validated dose-treatments, mean fold change vs ENR+CD+DMSO",50-75%
same,Dose.FC.CTG,[3]; 0.02 uM,0.126 log2 fold change
same,Dose.FC.CTG,[3]; 0.04 uM,0.029 log2 fold change
same,Dose.FC.CTG,[3]; 0.08 uM,0.141 log2 fold change
same,Dose.FC.CTG,[3]; […],0.120 log2 fold change
same,number of differentially expressed genes among hit compounds,[4]; ENR and ENR+CD,most differentially expressed genes
same,"secretory cell gene set scores (Paneth, goblet, EEC) from bulk transcripts","[4]; ENR+CV, ENR+CD or ENR","increase secretory cells (Paneth, goblet, and EEC)"
same,body weight,[5]; 10 mg/kg oral gavage every other day,significant weight loss
same,body weight,"[5]; 0.2, 0.05 and 0.01 mg/kg oral gavage every other day",no significant changes in animal weight at any dose
same,toxicity to mice (body weight),[6],toxic to mice
same,toxicity in primary screening,"[7]; concentrations higher than 160 nM, 6 days",toxic
same,Dose.FC.CTG (log2 fold change),[7]; dose 0.08 uM,0.210
same,Dose.FC.CTG (log2 fold change),[7]; dose 0.40 uM,−0.657
same,Dose.FC.CTG (log2 fold change),[7]; dose 2.00 uM,−0.894
same,Dose.FC.CTG (log2 fold change),[7]; dose 10.00 uM,−1.876
